We go through 39 compounds from patent publication US8987250B2 (Gilead Sciences, Inc., priority 2012, dated 2015).

For this assay, the system named is HIV-IIIb. In words: Test A: Antiviral Assay in MT4 Cells. Format: cell-based. The note with it: Human immunodeficiency virus 1, IIIB, MT4, 120 h, Table 2; MT-4 cells infected with HIV-IIIb, 5 days of incubation, CellTiter-Glo; read-out: EC50. In outline: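 Read-out: CellTiter-Glo chemiluminescence after 5-day incubation at 37 °C. Compounds tested as 3-fold serial dilutions (10 concentrations, quadruplicate) in RPMI 1640 with 10% FBS, on MT-4 cells pre-infected at 37 °C with HIV-IIIb at 0.004 m.o.i.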
On the technique in general: In ATP-based viability assays light output follows the ATP content of the culture.
With `Cc1cc2nc(N3CC[C@H]4CCCC[C@@H]4C3)sc2c(-c2ccc(Cl)cc2)c1[C@H](OC(C)(C)C)C(=O)O` [Compound 438], the EC50 (as a rule, the concentration giving half of the maximal effect) came to 258 nM. Then `Cc1cc2nc(N3Cc4ccccc4C3)sc2c(-c2ccc(Cl)cc2)c1[C@H](OC(C)(C)C)C(=O)O` [Compound 439], with 20 nM; and `Cc1cc2nc(N3CCc4nn(C)c(C)c4C3)sc2c(-c2ccc(Cl)cc2)c1[C@H](OC(C)(C)C)C(=O)O` [Compound 440], with 11 nM. Next, `Cc1cc2nc(N3CCc4c(c(C)nn4C)C3)sc2c(-c2ccc(Cl)cc2)c1[C@H](OC(C)(C)C)C(=O)O` [Compound 441]: 4 nM. Next, `Cc1cc2nc(N3CCn4c(C)nnc4C3)sc2c(-c2ccc(Cl)cc2)c1[C@H](OC(C)(C)C)C(=O)O` [Compound 442]: 1160 nM; `Cc1cc2nc(-c3ccnc(-c4ccc5c(c4)c(C)nn5C)c3)sc2c(-c2ccc(Cl)cc2)c1[C@H](OC(C)(C)C)C(=O)O` [Compound 443]: 24 nM.

`CNc1nn(C)c2ccc(-c3nc4cc(C)c([C@H](OC(C)(C)C)C(=O)O)c(-c5ccc(Cl)cc5)c4s3)cc12` [Compound 444]: the EC50 is 10 nM. Next, `CNc1nn(C)c2cc(-c3nc4cc(C)c([C@H](OC(C)(C)C)C(=O)O)c(-c5ccc(Cl)cc5)c4s3)ccc12` [Compound 445]: 5 nM; `Cc1cc2nc(-c3ccc4c(c3)OCCO4)sc2c(-c2ccc(Cl)cc2)c1[C@H](OC(C)(C)C)C(=O)O` [Compound 446]: 173 nM. Then `Cc1cc2nc(-c3ccnc(-n4ccc5ncccc5c4=O)c3)sc2c(-c2ccc(Cl)cc2)c1[C@H](OC(C)(C)C)C(=O)O` [Compound 447], with 5 nM; and `Cc1cc2nc(-c3ccnc(-c4ccc5ccn(C)c(=O)c5c4)c3)sc2c(-c2ccc(Cl)cc2)c1[C@H](OC(C)(C)C)C(=O)O` [Compound 448], with 9 nM. Then `Cc1cc2nc(-c3ccnc(-c4ccc5cc[nH]c(=O)c5c4)c3)sc2c(-c2ccc(Cl)cc2)c1[C@H](OC(C)(C)C)C(=O)O` [Compound 449], with 30 nM; and `Cc1cc2nc(-n3ccc4cnccc4c3=O)sc2c(-c2ccc(Cl)cc2)c1[C@H](OC(C)(C)C)C(=O)O` [Compound 450], with 25 nM. Take `COc1ccc2ccc(-c3cc(-c4nc5cc(C)c([C@H](OC(C)(C)C)C(=O)O)c(-c6ccc(Cl)cc6)c5s4)ccn3)cc2n1` [Compound 451]: the EC50 stood at 86 nM. Then `Cc1cc2nc(-c3ccnc(-c4ccc5ccc(=O)n(C)c5c4)c3)sc2c(-c2ccc(Cl)cc2)c1[C@H](OC(C)(C)C)C(=O)O` [Compound 452], with 16 nM. `Cc1cc2nc(-c3ccnc(-c4ccc5ccc(=O)[nH]c5c4)c3)sc2c(-c2ccc(Cl)cc2)c1[C@H](OC(C)(C)C)C(=O)O` [Compound 453]: the EC50 came out at 36 nM. Next, `Cc1cc2nc(-c3ccnc(-c4cnc5c(c4)n(C)c(=O)n5C)c3)sc2c(-c2ccc(Cl)cc2)c1[C@H](OC(C)(C)C)C(=O)O` [Compound 454]: 18 nM.

In the case of `Cc1cc2nc(-c3ccc4c(c3)c(=O)n(C)n4C)sc2c(-c2ccc(Cl)cc2)c1[C@H](OC(C)(C)C)C(=O)O` [Compound 455], the EC50 is 17 nM. Next, `Cc1cc2nc(-c3ccnc(N4CC5CCCCN5C4=O)c3)sc2c(-c2ccc(Cl)cc2)c1[C@H](OC(C)(C)C)C(=O)O` (stereo partly drawn) [Compound 456]: 20 nM. Then `COc1ccc2cc(-c3cc(-c4nc5cc(C)c([C@H](OC(C)(C)C)C(=O)O)c(-c6ccc(Cl)cc6)c5s4)ccn3)ccc2n1` [Compound 457], with 96 nM; and `Cc1cc2nc(-c3ccnc(-n4ccc5ccncc5c4=O)c3)sc2c(-c2ccc(Cl)cc2)c1[C@H](OC(C)(C)C)C(=O)O` [Compound 458], with 5 nM; and `Cc1cc2nc(-c3ccnc(-c4ccc5[nH]c(=O)ccc5c4)c3)sc2c(-c2ccc(Cl)cc2)c1[C@H](OC(C)(C)C)C(=O)O` [Compound 459], with 28 nM. For the compound `Cc1cc2nc(-c3ccnc(-n4ccn5cccc5c4=O)c3)sc2c(-c2ccc(Cl)cc2)c1[C@H](OC(C)(C)C)C(=O)O` [Compound 460], the EC50 turned out to be 31 nM. Take `Cc1cc2nc(-c3ccnc(-c4ccc5c(c4)c(=O)n(C)n5C)c3)sc2c(-c2ccc(Cl)cc2)c1[C@H](OC(C)(C)C)C(=O)O` [Compound 461]: the EC50 was 14 nM. As to `Cc1cc2nc(-c3ccnc(-n4ccc5ccccc5c4=O)c3)sc2c(-c2ccc(Cl)cc2)c1[C@H](OC(C)(C)C)C(=O)O` [Compound 462], the EC50 amounted to 42 nM. Then `Cc1cc2nc(-c3ccnc(-c4ccc5c(c4)[nH]c(=O)n5C)c3)sc2c(-c2ccc(Cl)cc2)c1[C@H](OC(C)(C)C)C(=O)O` [Compound 463], with 52 nM; and `CCC(CC)N1CCN(c2nccc(-c3nc4cc(C)c([C@H](OC(C)(C)C)C(=O)O)c(-c5ccc(Cl)cc5)c4s3)n2)CC1` [Compound 464, (S)-2-tert-butoxy-2-(7-(4-chlorophenyl)-5-methyl-2-(2-(4-(pentan-3-yl)piperazin-1-yl)pyrimidin-4-yl)benzo[d]thiazol-6-yl)acetic acid], with 12 nM. Then `Cc1cc2nc(-c3ccnc(N4CCN(C(C)(C)C)CC4)n3)sc2c(-c2ccc(Cl)cc2)c1[C@H](OC(C)(C)C)C(=O)O` [Compound 465, (S)-2-tert-butoxy-2-(2-(2-(4-tert-butylpiperazin-1-yl)pyrimidin-4-yl)-7-(4-chlorophenyl)-5-methylbenzo[d]thiazol-6-yl)acetic acid], with 2 nM; and `Cc1cc2nc(-c3ccnc(N4CCN(C(C)C)C[C@H]4C)n3)sc2c(-c2ccc(Cl)cc2)c1[C@H](OC(C)(C)C)C(=O)O` [Compound 466, (S)-2-tert-butoxy-2-(7-(4-chlorophenyl)-2-(2-((R)-4-isopropyl-2-methylpiperazin-1-yl)pyrimidin-4-yl)-5-methylbenzo[d]thiazol-6-yl)acetic acid], with 5 nM; and `Cc1cc2nc(-c3ccnc(N4CCN(C)[C@@H](C)C4)n3)sc2c(-c2ccc(Cl)cc2)c1[C@H](OC(C)(C)C)C(=O)O` [Compound 468, (S)-2-tert-butoxy-2-(7-(4-chlorophenyl)-2-(2-((S)-3,4-dimethylpiperazin-1-yl)pyrimidin-4-yl)-5-methylbenzo[d]thiazol-6-yl)acetic acid], with 8 nM. Turning to `Cc1cc2nc(-c3ccnc(N4CCN(C)[C@H](C)C4)n3)sc2c(-c2ccc(Cl)cc2)c1[C@H](OC(C)(C)C)C(=O)O` [Compound 469, (S)-2-tert-butoxy-2-(7-(4-chlorophenyl)-2-(2-((R)-3,4-dimethylpiperazin-1-yl)pyrimidin-4-yl)-5-methylbenzo[d]thiazol-6-yl)acetic acid], the EC50 was found to be 8 nM. For `Cc1cc2nc(-c3ccnc(N4CCN(C(C)C)[C@@H](C)C4)n3)sc2c(-c2ccc(Cl)cc2)c1[C@H](OC(C)(C)C)C(=O)O` [Compound 470, (S)-2-tert-butoxy-2-(7-(4-chlorophenyl)-2-(2-((S)-4-isopropyl-3-methylpiperazin-1-yl)pyrimidin-4-yl)-5-methylbenzo[d]thiazol-6-yl)acetic acid], the EC50 amounted to 3 nM. For the compound `Cc1cc2nc(-c3ccnc(N4CCN(C(C)C)[C@H](C)C4)n3)sc2c(-c2ccc(Cl)cc2)c1[C@H](OC(C)(C)C)C(=O)O` [Compound 471, (S)-2-tert-butoxy-2-(7-(4-chlorophenyl)-2-(2-((R)-4-isopropyl-3-methylpiperazin-1-yl)pyrimidin-4-yl)-5-methylbenzo[d]thiazol-6-yl)acetic acid], the EC50 was found to be 3 nM. With `Cc1cc2nc(-c3ccnc(N4CCN(C(=O)N(C)C)CC4)n3)sc2c(-c2ccc(Cl)cc2)c1[C@H](OC(C)(C)C)C(=O)O` [Compound 472, (S)-2-tert-butoxy-2-(7-(4-chlorophenyl)-2-(2-(4-(dimethylcarbamoyl)piperazin-1-yl)pyrimidin-4-yl)-5-methylbenzo[d]thiazol-6-yl)acetic acid], the EC50 was found to be 4 nM. Then `CCN1CCN(c2nccc(-c3nc4cc(C)c([C@H](OC(C)(C)C)C(=O)O)c(-c5ccc(Cl)cc5)c4s3)n2)CC1=O` [Compound 473, (S)-2-tert-butoxy-2-(7-(4-chlorophenyl)-2-(2-(4-ethyl-3-oxopiperazin-1-yl)pyrimidin-4-yl)-5-methylbenzo[d]thiazol-6-yl)acetic acid], with 8 nM; and `Cc1cc2nc(-c3ccnc(N4CCN(C(C)C(F)(F)F)CC4)n3)sc2c(-c2ccc(Cl)cc2)c1[C@H](OC(C)(C)C)C(=O)O` (stereo partly drawn) [Compound 474, (2S)-2-tert-butoxy-2-(7-(4-chlorophenyl)-5-methyl-2-(2-(4-((2R/2S)-1,1,1-trifluoropropan-2-yl)piperazin-1-yl)pyrimidin-4-yl)benzo[d]thiazol-6-yl)acetic acid], with 40 nM; and `CCN1CCN(c2nccc(-c3nc4cc(C)c([C@H](OC(C)(C)C)C(=O)O)c(-c5ccc(Cl)cc5)c4s3)n2)CC1` [Compound 475, (S)-2-tert-butoxy-2-(7-(4-chlorophenyl)-2-(2-(4-ethylpiperazin-1-yl)pyrimidin-4-yl)-5-methylbenzo[d]thiazol-6-yl)acetic acid], with 6 nM. Then `Cc1cc2nc(-c3ccnc(N4CCNCC4)n3)sc2c(-c2ccc(Cl)cc2)c1[C@H](OC(C)(C)C)C(=O)O` [Compound 476, (S)-2-tert-butoxy-2-(7-(4-chlorophenyl)-5-methyl-2-(2-(piperazin-1-yl)pyrimidin-4-yl)benzo[d]thiazol-6-yl)acetic acid], with 128 nM; and `Cc1cc2nc(-c3ccnc(N4CCCN(C)CC4)n3)sc2c(-c2ccc(Cl)cc2)c1[C@H](OC(C)(C)C)C(=O)O` [Compound 477, (S)-2-tert-butoxy-2-(7-(4-chlorophenyl)-5-methyl-2-(2-(4-methyl-1,4-diazepan-1-yl)pyrimidin-4-yl)benzo[d]thiazol-6-yl)acetic acid], with 14 nM.
